The test system of assay [1] is Legionella. It counts as cell-based. The note with it: natural water samples, 37° C., after ten days.
The subject of assay [2] is A. thaliana. Description: Germination and seedling size of A. thaliana on agar containing inhibitor. The note with it: for root and cotyledons formation: 260 μM (glyphosate equimolar).

Each structure is given as a SMILES string.

With `C[C@@H](O)[C@@H](O)[C@@H](O)[C@H](O)C(=O)CO` [7dSh, 7-deoxy-D-altro-heptulose], in assay [1], the “number of CFUs of Legionella, times lower compared to the control” value is on record as 4-5 times lower. Further, the “gravitropism of the seedlings” value in assay [2] (260 μM) was “impaired in gravitropism”. In addition, in assay [2], the “root and cotyledons formation” value was “only minor root and cotyledons formation was observed”. In assay [2] (260 μM, 7 days of germination), the “size of the seedlings” value was roughly 2 mm and the “size of the seedlings compared to the control” value is “three times lower”. Further, the germination process result in assay [2] (130-260 μM) is “came to an arrest within the first days”. Also, in assay [2] (concentrations higher than 130 μM (~25 μg/mL)), the “inhibitory capacity on A. thaliana compared to glyphosate (seedling-size and morphological appearance)” value is given as “significant increased inhibitory capacity”. Moreover, the “growth inhibitory effects on A. thaliana” value in assay [2] (concentrations up to 50 μM, 7 days of germination) was “comparable to glyphosate”.

On to `O=C(O)CNCP(=O)(O)O` [glyphosate, reference compound], for which the “root and cotyledons formation” value in assay [2] is “developed further and showed more distinct root and cotyledons formation”.
